One experiment addresses Histone deacetylase. Put plainly: Inhibition of Histone deacetylase in HeLa cell nuclear extracts by fluorescence-based assay. Also on record: species or system Homo sapiens.
The target in another experiment is Histone deacetylase 1 (Homo sapiens, UniProt Q13547). Put plainly: Inhibition of human HDAC1.
A further experiment addresses T1, Histone deacetylase 8 (Homo sapiens, UniProt Q9BY41).
T1 sequence (Q9BY41 whole entry): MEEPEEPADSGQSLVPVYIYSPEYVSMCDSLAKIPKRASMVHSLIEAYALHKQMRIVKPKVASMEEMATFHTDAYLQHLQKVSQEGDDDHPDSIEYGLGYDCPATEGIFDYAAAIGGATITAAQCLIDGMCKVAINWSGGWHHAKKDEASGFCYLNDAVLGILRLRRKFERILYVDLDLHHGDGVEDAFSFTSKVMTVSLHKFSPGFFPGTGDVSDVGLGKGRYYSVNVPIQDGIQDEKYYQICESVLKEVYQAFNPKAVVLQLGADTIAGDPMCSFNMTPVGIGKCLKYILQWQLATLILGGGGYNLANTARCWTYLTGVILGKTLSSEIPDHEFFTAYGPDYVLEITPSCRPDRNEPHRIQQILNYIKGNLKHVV
Put plainly: Inhibition of human HDAC8.

Square brackets hold non-standard residues; d marks the D form. Peptide text beside a SMILES is read from it. * marks the point of attachment. Asu = N[C@@H](CCCCCC(=O)O)C(=O)O; NHOH = ON*

Sequence of Histone deacetylase 1 (Q13547 whole entry): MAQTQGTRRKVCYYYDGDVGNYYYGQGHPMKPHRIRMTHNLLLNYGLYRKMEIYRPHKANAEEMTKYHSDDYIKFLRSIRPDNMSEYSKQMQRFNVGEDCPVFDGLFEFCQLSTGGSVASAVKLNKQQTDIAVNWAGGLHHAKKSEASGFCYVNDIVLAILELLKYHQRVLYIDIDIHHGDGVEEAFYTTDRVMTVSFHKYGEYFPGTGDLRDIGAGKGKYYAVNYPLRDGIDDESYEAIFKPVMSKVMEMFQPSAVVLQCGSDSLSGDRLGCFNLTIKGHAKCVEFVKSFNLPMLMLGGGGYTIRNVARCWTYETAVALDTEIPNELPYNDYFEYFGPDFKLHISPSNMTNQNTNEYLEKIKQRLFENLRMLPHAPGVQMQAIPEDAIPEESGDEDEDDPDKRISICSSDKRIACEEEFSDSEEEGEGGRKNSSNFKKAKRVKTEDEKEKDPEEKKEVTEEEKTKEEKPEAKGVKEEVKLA

`COC(=O)C(Cc1cccc(C[C@H](NC(C)=O)C(=O)O)c1)NC(=O)[C@@H](N)CCCCCC(=O)NO` (stereo not given in full): the IC50 (commonly the midpoint of a concentration-inhibition curve) at Histone deacetylase was determined as 8100 nM; at Histone deacetylase 1, 40000 nM.
With `COC(=O)[C@@H]1Cc2cccc(c2)C[C@H](NC(C)=O)C(=O)N[C@@H](CCCCCC(=O)NO)C(=O)N1`, the IC50 against Histone deacetylase 8 is 231 nM; against Histone deacetylase it was 46 nM; at Histone deacetylase 1, 57 nM. The figures for the Ki at Histone deacetylase 8, at Histone deacetylase and on Histone deacetylase 1 were 5.32 nM, 13.67 nM and 4.15 nM, respectively.
Take `COC(=O)[C@H](Cc1ccccc1)NC(=O)[C@H](CCCCCC(=O)NO)NC(=O)[C@H](C)NC(C)=O` (Ac-Ala-[Asu](NHOH)-Phe-OMe): the IC50 on Histone deacetylase was 167 nM; on Histone deacetylase 1, 174 nM.

The values above are taken from ChEMBL document CHEMBL1147150, “Design and synthesis of a potent histone deacetylase inhibitor” (J Med Chem, 2007).
